Patent publication US20260297060A1, “COMPOUNDS FOR THE DEGRADATION OF MUTANT BRAF” (C4 THERAPEUTICS, INC., priority 2023, published 2026)
Read-outs that look alike come from different tables or passages of the source. Blank lines part the entries; values can stand above or below the compound they belong to.

Legend:
[1] = Example 6 pharmacokinetics assay for efficacy study (plasma, liver); type: in vivo, BALB/c nude mice; settings: 10 mg/kg, p.o., BID × 21 days; for concentration at 6 h: mouse, po
Protocol: For efficacy study, compounds were tested in the A375 human melanoma xenografts. Known BRAF inhibitors encorafenib, and dabrafenib were used as positive controls. Encorafenib and dabrafenib were administered to BALB/c nude mice bearing A375 tumors on PG-D1 and dosed PO daily (QD) for 3 weeks. Encorafenib was dosed at 35 mg/kg. Dabrafenib was dosed at 100 mg/kg. Compound 83, Compound 93, Compound 70, and Compound 54 were administered to BALB/c nude mice bearing A375 tumors on PG-DO and dosed PO twice per day (BID) for 3 weeks. Compound 83, Compound 93, Compound 70, and Compound 54 were dosed at 10 mg/kg.
(§1) The plasma samples were collected at predetermined time points for PK analysis. The mice were euthanized at predetermined time points post the treatment. The blood samples were collected into the 1.5 mL Eppendorf tubes containing 15 μL of 0.5 M EDTA-K2. And then the anticoagulant blood samples were centrifuged at 2,500 g at 4° C. for 15 minutes. The plasma samples were separated into 2 aliquots. The 1st was used for PK analysis, and the 2nd served as backup. The samples were stored at −80° C. before bioanalysis.
(§2) Liver samples were collected at predetermined time points for PK analysis. The left lobe of the liver was dissected out and split into 2 parts. The 1st part was used for PK analysis and the 2nd part served as the backup for the study. The samples were transferred into pre-labeled tubes and quickly froze in liquid nitrogen within 2 minutes after dissection. The samples were stored at −80° C. before bioanalysis.
For efficacy study, the harvested plasma and liver were processed for pharmacokinetics analysis by LC/MS/MS with a concentration range of 2.00-2000 ng/mL for Encorafenib and Dabrafenib in plasma, 0.20-200 ng/mL for Encorafenib and Dabrafenib in liver, 50.0-50000 ng/mL for compound 83 and compound 70 in plasma, 20.0-20000 ng/mL for Compound 93 and Compound 54 in plasma, 5.00-5000 ng/mL for compound 93, compound 83, compound 70 and compound 54 in liver.

[2] = Example 8 pharmacokinetics assay for PKPD study (plasma, tumor, liver); type: in vivo, BALB/c nude mice; settings: mouse, po, 10 mg/kg, p.o., single dose
Protocol: For the PK and PD study, agents were administered to BALB/c nude mice bearing A375 human melanoma xenografts tumors. encorafenib, Compound 8, Compound 26, Compound 38, and Compound 39 were dosed p.o. once on day 1. Encorafenib was dosed at 35 mg/kg, Compound 8, Compound 26, Compound 38, and Compound 39 were dosed at 10 mg/kg. This study was non-GLP.
as §1, with “analysis. For non-termination plasma collection, blood samples were collected into the 1.5 mL Eppendorf tubes containing 3 μL of 0.5 M EDTA-K2. For termination plasma collection, the” for “analysis. The”, “the treatment and the” for “the treatment. The”
The tumor samples were collected at predetermined time points for PK and WB analysis. The tumor was dissected out and split into 3 parts. The 1st part was used for PK analysis, the 2nd part was used for WB analysis and the last one served as backup for study. The samples were transferred into pre-labeled tubes and quickly froze in liquid nitrogen within 2 minutes after dissection. The samples were stored at −80° C. before bioanalysis.
as §2
The harvested plasma and liver samples were processed for pharmacokinetics analysis by LC-MS/MS with a concentration range of 0.200~200 ng/mL for encorafenib in plasma and liver homogenate, and 0.100-100 ng/ml in tumor homogenate, 1.00-1000 ng/mL for Compound 8 in plasma and 0.500~500 ng/ml in tumor and liver homogenate, 50.0~50,000 ng/mL for Compound 26 and Compound 38 in plasma, 5.0~5000 ng/ml in liver and 2.00~2000 ng/ml in tumor homogenate, 1.00-1000 ng/mL for Compound 39 in plasma and 0.500~500 ng/mL in liver and tumor homogenate.

[3] = liver, read-out: Concentration in Liver (mean ± SEM)
[4] = plasma, read-out: Concentration in Plasma (mean ± SEM)
[5] = tumor, read-out: Concentration in Tumor (mean ± SEM)

concentration at 6 h [1, 3]: 11000 ± 1050 ng/g | concentration at 6 h [1, 4]: 17100 ± 1510 ng/mL
Compound: CCN(C)S(=O)(=O)Nc1ccc(F)c(Oc2ccc3ncn(C4CC5(CCN(C6CCC(c7cc8c(cc7F)c(N7CCC(=O)NC7=O)nn8C)CC6F)CC5)C4)c(=O)c3c2)c1C#N (single isomer, unassigned) [Compound 83, 6-[2-cyano-3-[[ethyl(methyl)sulfamoyl]amino]-6-fluoro-phenoxy]-3-[7-[4-[3-(2,4-dioxohexahydropyrimidin-1-yl)-5-fluoro-1-methyl-indazol-6-yl]-2-fluoro-cyclohexyl]-7-azaspiro[3.5]nonan-2-yl]-4-oxo-quinazoline]

concentration at 6 h [1, 3]: 652 ± 180 ng/g | concentration at 6 h [1, 4]: 1100 ± 389 ng/mL
Compound: Cn1nc(N2CCC(=O)NC2=O)c2cc(F)c(C3CCC(N4CCC5(CC4)CC(n4cnc6ccc(Oc7c(F)ccc(NS(=O)(=O)C8CCCC8)c7C#N)cc6c4=O)C5)CC3)cc21 (single isomer, unassigned) [Compound 93, N-[2-cyano-3-[3-[7-[4-[3-(2,4-dioxohexahydropyrimidin-1-yl)-5-fluoro-1-methyl-indazol-6-yl]cyclohexyl]-7-azaspiro[3.5]nonan-2-yl]-4-oxo-quinazolin-6-yl]oxy-4-fluoro-phenyl]cyclopentanesulfonamide]

Continued, compound first:

Compound: CCN(C)S(=O)(=O)Nc1ccc(F)c(Oc2ccc3ncc([C@@H]4COC5(CCN(C6CCC(c7cc8c(cc7F)c(N7CCC(=O)NC7=O)nn8C)CC6)CC5)C4)nc3c2)c1C#N (single isomer, unassigned) [Compound 54]
concentration at 6 h [1, 3]: 4240 ± 955 ng/g | concentration at 6 h [1, 4]: 3990 ± 634 ng/mL

Compound: CCN(C)S(=O)(=O)Nc1ccc(F)c(Oc2ccc3ncn([C@H]4COC5(CCN(C6CC(c7cc8c(cc7F)c(N7CCC(=O)NC7=O)nn8C)C6)CC5)C4)c(=O)c3c2)c1C#N (single isomer, unassigned) [Compound 70]
Concentration in Liver (mean ± SEM) ([1]; 6 h): 6392 ± 570 ng/g | Concentration in Plasma (mean ± SEM) ([1]; 6 h): 16083 ± 1345 ng/mL

Compound: CCN(C)S(=O)(=O)Nc1ccc(F)c(Oc2ccc3ncn([C@H]4COC5(CCN(C6CC7(C6)CN(c6cc8c(cc6F)c(N6CCC(=O)NC6=O)nn8C)C7)CC5)C4)c(=O)c3c2)c1C#N [Compound 26, (3R)-3-[6-[2-cyano-3-[[ethyl(methyl)sulfamoyl]amino]-6-fluoro-phenoxy]-4-oxo-quinazolin-3-yl]-8-[2-[3-(2,4-dioxohexahydropyrimidin-1-yl)-5-fluoro-1-methyl-indazol-6-yl]-2-azaspiro[3.3]heptan-6-yl]-1-oxa-8-azaspiro[4.5]decane]
concentration at 6 h [2, 3]: 11800 ± 551 ng/g | concentration at 12 h [2, 3]: 3250 ± 601 ng/g | concentration at 1 h [2, 4]: 29100 ± 733 ng/mL | concentration at 6 h [2, 4]: 20800 ± 2930 ng/mL | concentration at 12 h [2, 4]: 4600 ± 1140 ng/mL | concentration at 24 h [2, 4]: 162 ± 15.3 ng/mL | concentration at 1 h [2, 5]: 1900 ± 320 ng/g | concentration at 6 h [2, 5]: 3770 ± 478 ng/g | concentration at 12 h [2, 5]: 1400 ± 226 ng/g | concentration at 24 h [2, 5]: 64.9 ± 19.9 ng/g
